Experimental findings from ChEMBL document CHEMBL1201862, “PubChem BioAssay data set” (2004) are described below.

Calls of active or inactive are those of the source. Bounds are passed on as bounds.

In assay [1] the target is T1, Microphthalmia-associated transcription factor (Homo sapiens, UniProt O75030).
T1 sequence (O75030 whole entry): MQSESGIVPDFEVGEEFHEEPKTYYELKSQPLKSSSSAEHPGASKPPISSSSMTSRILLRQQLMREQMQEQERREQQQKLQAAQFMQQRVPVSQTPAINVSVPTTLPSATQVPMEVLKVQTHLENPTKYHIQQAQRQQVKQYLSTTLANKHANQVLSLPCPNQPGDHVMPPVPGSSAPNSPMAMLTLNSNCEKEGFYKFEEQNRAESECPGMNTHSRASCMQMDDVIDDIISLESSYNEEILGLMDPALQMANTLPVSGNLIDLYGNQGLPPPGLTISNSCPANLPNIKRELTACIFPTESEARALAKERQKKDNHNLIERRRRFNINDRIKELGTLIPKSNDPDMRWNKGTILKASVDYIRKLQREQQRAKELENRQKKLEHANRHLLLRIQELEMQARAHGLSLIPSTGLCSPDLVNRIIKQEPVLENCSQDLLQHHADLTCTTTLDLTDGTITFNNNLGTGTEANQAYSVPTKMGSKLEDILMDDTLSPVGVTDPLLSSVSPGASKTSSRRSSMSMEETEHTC
Briefly: TRPM1 promoter luciferase signal decrease, dose response, MITF inhibitor project, cell-based, SK-MEL-5, cherry-picked, set 3 (AID 493073).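 Further: SK-MEL-5 melanoma cells with luciferase driven by the MITF target TRPM1 promoter.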 The format is functional.

A short description of assay [2]: Luminescence Cell-Based Dose Response HTS to Identify Inhibitors of 5'UTR Stem-Loop Driven Prion Protein mRNA Translation in H4 Neuroglioblastoma Cells. [Related pubchem assays: 1827 (Project Summary), 1813 (Primary HTS)]. The format is functional.
Assay [3] in a line: Shn3 3'UTR reporter inhibitors, dose response, cell-based, Clone20 osteoblasts, firefly luciferase, cherry-picked (AID 624132).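 Further: firefly luciferase luminescence from reporter carrying the Shn3 3'UTR in osteoblasts.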 The format is functional.
Assay [4] has as its system Jurkat. Kind of assay: SAR Analysis of small molecule inhibitors of T-cell specific antigen receptor-induced NF-kB activation in a Jurkat cell line using a luminescence assay - Set 2. [Related pubchem assays (depositor defined):AID435003, AID435012, AID465]. The class given is functional, cell-based. To be noted: Homo sapiens.
The nature of assay [5]: inhibitors of firefly luciferase expression or activity, dose response, H4 neuroglioma cells, luminescence (AID 1990). The class given is functional, cell-based.
The nature of assay [6]: inhibitors of SNCA 5'UTR-driven reporter translation, confirmation, H4 neuroglioma cells, luminescence (AID 1988). The format is functional, cell-based.
Assay [7] deals with HEK293. Kind of assay: cytotoxicity in HEK293T NF-kB-Luc cells, SAR follow-up, cytotoxicity control for NF-kB activator project, cell-based, resazurin fluorescence (AID 493251). The format is functional. The conditions noted are these: Homo sapiens. Background: The colour change of resazurin is a common sign of viable cells or microbes.
Assay [8] has as its target T2, Beta-2 adrenergic receptor (Homo sapiens, UniProt P07550). Briefly: Dose response for HTS for Beta-2AR agonists via FAP method from Powderset1. The class given is functional.
Assay [9] concerns the target T3, Heat shock factor protein 1 (Mus musculus, UniProt P38532).
T3 sequence (P38532 whole entry): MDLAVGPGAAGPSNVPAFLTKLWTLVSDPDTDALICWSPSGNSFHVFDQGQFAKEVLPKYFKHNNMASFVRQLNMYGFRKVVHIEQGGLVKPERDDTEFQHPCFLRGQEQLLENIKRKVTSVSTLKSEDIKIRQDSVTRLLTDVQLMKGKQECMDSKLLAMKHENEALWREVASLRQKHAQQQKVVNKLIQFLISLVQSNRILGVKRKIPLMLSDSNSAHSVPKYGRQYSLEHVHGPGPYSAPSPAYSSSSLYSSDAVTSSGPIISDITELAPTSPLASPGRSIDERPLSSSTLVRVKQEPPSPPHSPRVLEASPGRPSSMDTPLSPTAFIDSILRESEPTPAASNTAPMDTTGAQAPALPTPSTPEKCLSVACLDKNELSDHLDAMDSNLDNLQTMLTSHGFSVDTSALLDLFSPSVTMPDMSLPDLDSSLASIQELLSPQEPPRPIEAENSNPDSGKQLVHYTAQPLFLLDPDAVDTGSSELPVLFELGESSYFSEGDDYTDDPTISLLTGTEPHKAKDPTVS
Kind of assay: HSF1 potentiators in luciferase reporter cells, confirmation, cell-based, NIH3T3, luminescence, dose retest (AID 435004).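 Further: stress induced by proteasome inhibitor MG132 added 30 min after compound; luciferase reporter driven by HSF1 response element in NIH3T3 cells; actives raise luminescence as potentiators of the MG132 stress response.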 The class given is functional. For orientation: A reporter such as luciferase makes a cellular process visible.

A short description of assay [10]: HepG2 cell cytotoxicity, dose response, cytotoxicity control for Shn3 inhibitor project, CellTiter-Glo, cherry-picked (AID 624134). The format is functional, cell-based.
Assay [11] relates to HEK293. Kind of assay: SAR Analysis of small molecule inhibitors of T-cell specific antigen receptor-induced NF-kB activation in a HEK-293T cell line using a luminescence assay - Set 2. [Related pubchem assays (depositor defined):AID435003, AID435012, AID489026]. The format is functional, cell-based. The conditions noted are these: Homo sapiens.
Assay [12] is described as follows: control 3'UTR Renilla luciferase suppression, dose response, counter-screen for Shn3 inhibitor project, cell-based, Clone20-Shn3RL, cherry-picked (AID 624133). The class given is functional.
Assay [13] concerns the target T2, Beta-2 adrenergic receptor. Briefly: beta2AR agonists driving receptor internalization, dose response, cell-based, FAP fluorogen, flow cytometry, cherry pick 1 (AID 588763). The class given is functional.
Assay [14] deals with T4, Small ubiquitin-related modifier 1 (Homo sapiens, UniProt P63165). Kind of assay: inhibitors of SUMO1 peptide binding, dose response, biochemical, fluorescence polarization, uHTS hits (AID 624382). The format is functional. The conditions noted are these: read-out: IC50_Mean.
T4 sequence (P63165 whole entry): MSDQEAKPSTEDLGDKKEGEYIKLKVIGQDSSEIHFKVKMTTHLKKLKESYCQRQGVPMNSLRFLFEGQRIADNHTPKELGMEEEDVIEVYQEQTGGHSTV
In assay [15] the target is Bcl-2-like protein 1 (Homo sapiens, UniProt Q07817). Briefly: BCL-XL inhibitors, dose response, selectivity assay for MCL1 inhibitor project, biochemical, fluorescence polarization, 1536-well (AID 2218).
Sequence of Bcl-2-like protein 1 (Q07817 whole entry): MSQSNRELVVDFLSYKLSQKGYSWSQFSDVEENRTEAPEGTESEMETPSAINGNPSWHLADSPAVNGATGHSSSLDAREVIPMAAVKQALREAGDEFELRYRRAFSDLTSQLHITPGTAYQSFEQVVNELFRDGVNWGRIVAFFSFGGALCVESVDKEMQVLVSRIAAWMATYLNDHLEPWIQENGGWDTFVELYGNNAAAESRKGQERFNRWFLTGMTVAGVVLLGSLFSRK
Assay [16] concerns HeLa. Kind of assay: HeLa cell cytotoxicity, dose response, cytotoxicity control, 24 h, cherry-picked samples (AID 504726).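 Further: potency for cytotoxicity as loss of luminescence signal.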 The format is functional, cell-based. To be noted: Homo sapiens.
Assay [17] concerns the target ORF 73 (Human herpesvirus 8, UniProt O40947). Briefly: inhibitors of C-LANA binding to LBS DNA, dose response, biochemical, fluorescence polarization, cherry-picked samples (AID 504725).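 Further: fluorescence polarization of a labeled DNA duplex reporting LANA DNA binding; potency is for inhibitors that block LANA binding to the DNA.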 Further details: species or system Human gammaherpesvirus 8. On the technique in general: Fluorescence polarisation rises when a labelled molecule tumbles more slowly, as on binding a larger partner.

Assay [18] concerns the target T4, Small ubiquitin-related modifier 1. Briefly: inhibitors of SUMO1 partner interactions, dose response, biochemical, FRET (AID 624383). To be noted: read-out: IC50_Mean. The class given is functional.
Assay [19] concerns the target DNA (cytosine-5)-methyltransferase 1 (Homo sapiens, UniProt P26358). Briefly: DNMT1 methyltransferase inhibitors, confirmation, biochemical, fluorescent molecular beacon (AID 602386). The class given is functional.
The target of assay [20] is Beta-adrenergic receptor kinase 1 (Homo sapiens, UniProt P25098). Kind of assay: aptamer displacement from bead-bound GRK2 – biochemical, cherry pick 1, bead flow cytometry, dose response (AID 504500).
Sequence of Beta-adrenergic receptor kinase 1 (P25098 whole entry): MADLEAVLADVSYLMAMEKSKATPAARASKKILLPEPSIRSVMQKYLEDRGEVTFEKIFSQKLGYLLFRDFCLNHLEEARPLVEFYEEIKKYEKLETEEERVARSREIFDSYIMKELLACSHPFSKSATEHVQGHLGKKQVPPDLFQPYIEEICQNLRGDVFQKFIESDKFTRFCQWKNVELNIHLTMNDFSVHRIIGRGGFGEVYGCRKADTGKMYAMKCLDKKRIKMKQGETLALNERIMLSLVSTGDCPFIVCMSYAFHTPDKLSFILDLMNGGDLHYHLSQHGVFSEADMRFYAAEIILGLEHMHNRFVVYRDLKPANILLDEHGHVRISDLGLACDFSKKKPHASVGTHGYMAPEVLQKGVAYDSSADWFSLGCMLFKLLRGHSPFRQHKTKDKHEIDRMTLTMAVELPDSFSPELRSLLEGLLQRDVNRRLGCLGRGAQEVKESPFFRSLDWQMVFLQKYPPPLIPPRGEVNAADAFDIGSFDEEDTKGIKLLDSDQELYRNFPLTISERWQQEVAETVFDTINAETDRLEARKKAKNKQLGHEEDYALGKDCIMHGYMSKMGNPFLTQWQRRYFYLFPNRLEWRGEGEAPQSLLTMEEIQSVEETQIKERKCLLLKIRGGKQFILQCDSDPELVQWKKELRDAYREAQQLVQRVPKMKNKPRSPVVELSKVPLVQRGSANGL
Assay [21] deals with T5, RNA-binding protein pos-1 (Caenorhabditis elegans, UniProt G5EF15).
T5 sequence (G5EF15 whole entry): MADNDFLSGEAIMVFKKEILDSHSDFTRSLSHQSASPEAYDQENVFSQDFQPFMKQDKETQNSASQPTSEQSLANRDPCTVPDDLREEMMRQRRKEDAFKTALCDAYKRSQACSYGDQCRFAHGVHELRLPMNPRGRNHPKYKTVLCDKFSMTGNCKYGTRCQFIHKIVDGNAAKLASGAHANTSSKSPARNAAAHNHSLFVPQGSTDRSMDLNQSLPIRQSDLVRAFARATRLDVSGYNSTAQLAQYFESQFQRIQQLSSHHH
Kind of assay: inhibitors of POS-1/mex-3 RNA binding, dose response, biochemical, fluorescence polarization (AID 1964).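 Further: purified POS-1 fused to maltose binding protein made in E. coli; potency of compounds blocking POS-1 binding to fluorescent RNA.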

Assay [22] addresses Induced myeloid leukemia cell differentiation protein Mcl-1 (Homo sapiens, UniProt Q07820). Briefly: MCL1-BIM BH3 interaction inhibitors, dose response, biochemical, fluorescence polarization, BIM-BH3 peptide, 1536-well (AID 2217).
The target in assay [23] is T6, Zinc finger protein mex-5 (Caenorhabditis elegans, UniProt Q9XUB2).
T6 sequence (Q9XUB2 whole entry): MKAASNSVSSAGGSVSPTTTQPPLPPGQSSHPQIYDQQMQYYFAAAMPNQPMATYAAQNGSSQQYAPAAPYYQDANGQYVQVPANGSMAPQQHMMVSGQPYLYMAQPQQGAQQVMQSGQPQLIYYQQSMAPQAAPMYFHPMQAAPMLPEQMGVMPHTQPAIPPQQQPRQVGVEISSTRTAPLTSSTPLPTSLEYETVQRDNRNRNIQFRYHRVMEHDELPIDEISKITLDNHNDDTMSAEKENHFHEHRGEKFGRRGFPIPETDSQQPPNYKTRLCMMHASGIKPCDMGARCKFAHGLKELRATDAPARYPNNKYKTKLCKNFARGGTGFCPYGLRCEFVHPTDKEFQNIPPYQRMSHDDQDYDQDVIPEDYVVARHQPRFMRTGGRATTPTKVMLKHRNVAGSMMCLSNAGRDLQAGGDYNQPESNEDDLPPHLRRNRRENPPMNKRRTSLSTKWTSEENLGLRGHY
Kind of assay: MEX-5/TCR-2 RNA interaction inhibitors, dose response, biochemical, C. elegans, fluorescence polarization (AID 1960).

T2 sequence (P07550 whole entry): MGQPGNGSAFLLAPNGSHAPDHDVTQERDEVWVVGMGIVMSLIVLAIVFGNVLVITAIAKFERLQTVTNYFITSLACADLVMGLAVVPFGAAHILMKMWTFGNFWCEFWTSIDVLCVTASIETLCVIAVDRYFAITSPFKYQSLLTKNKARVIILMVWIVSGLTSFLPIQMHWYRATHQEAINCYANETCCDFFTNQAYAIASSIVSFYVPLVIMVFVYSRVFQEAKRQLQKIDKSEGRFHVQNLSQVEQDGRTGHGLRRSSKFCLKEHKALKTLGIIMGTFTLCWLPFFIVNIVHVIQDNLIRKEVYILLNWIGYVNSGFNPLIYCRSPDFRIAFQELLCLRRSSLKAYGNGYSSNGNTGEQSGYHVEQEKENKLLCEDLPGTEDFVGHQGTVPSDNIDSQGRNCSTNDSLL
Sequence of Induced myeloid leukemia cell differentiation protein Mcl-1 (Q07820 whole entry): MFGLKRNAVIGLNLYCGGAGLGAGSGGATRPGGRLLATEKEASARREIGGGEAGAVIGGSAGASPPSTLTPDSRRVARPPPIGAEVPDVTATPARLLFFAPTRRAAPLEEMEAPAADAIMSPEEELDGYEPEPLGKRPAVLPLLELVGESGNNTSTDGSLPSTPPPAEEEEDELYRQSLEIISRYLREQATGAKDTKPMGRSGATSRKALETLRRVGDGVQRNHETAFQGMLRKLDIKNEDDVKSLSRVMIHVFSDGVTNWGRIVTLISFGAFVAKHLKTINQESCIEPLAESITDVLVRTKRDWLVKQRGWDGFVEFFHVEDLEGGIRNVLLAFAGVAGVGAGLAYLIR
Sequence of ORF 73 (O40947 whole entry): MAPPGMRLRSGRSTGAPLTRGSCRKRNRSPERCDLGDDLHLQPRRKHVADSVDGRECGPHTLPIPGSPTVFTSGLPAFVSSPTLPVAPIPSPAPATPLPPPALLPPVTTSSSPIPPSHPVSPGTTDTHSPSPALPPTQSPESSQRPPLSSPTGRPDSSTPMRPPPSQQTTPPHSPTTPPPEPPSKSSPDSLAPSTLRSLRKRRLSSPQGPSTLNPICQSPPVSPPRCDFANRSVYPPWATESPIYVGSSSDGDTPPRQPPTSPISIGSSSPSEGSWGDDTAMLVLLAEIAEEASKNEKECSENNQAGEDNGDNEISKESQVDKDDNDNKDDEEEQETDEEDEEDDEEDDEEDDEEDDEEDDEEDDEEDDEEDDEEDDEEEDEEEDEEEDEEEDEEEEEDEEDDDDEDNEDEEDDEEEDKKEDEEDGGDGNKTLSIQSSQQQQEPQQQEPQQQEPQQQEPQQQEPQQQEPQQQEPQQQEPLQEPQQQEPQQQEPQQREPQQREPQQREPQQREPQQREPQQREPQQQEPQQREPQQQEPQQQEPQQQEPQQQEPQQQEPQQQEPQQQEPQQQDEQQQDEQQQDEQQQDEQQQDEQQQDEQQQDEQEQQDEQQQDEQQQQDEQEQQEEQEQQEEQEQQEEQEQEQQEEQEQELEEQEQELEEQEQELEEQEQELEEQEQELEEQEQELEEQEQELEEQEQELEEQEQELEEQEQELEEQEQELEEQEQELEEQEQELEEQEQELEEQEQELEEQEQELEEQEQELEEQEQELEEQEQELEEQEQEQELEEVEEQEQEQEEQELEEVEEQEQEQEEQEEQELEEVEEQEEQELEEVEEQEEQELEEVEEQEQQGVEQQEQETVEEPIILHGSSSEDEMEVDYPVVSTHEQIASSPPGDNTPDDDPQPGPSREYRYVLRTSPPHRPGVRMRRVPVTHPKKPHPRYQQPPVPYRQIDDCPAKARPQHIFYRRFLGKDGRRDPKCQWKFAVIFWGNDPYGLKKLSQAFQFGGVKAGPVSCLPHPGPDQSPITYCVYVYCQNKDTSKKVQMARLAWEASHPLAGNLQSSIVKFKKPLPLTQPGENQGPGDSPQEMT
Sequence of DNA (cytosine-5)-methyltransferase 1 (P26358 whole entry): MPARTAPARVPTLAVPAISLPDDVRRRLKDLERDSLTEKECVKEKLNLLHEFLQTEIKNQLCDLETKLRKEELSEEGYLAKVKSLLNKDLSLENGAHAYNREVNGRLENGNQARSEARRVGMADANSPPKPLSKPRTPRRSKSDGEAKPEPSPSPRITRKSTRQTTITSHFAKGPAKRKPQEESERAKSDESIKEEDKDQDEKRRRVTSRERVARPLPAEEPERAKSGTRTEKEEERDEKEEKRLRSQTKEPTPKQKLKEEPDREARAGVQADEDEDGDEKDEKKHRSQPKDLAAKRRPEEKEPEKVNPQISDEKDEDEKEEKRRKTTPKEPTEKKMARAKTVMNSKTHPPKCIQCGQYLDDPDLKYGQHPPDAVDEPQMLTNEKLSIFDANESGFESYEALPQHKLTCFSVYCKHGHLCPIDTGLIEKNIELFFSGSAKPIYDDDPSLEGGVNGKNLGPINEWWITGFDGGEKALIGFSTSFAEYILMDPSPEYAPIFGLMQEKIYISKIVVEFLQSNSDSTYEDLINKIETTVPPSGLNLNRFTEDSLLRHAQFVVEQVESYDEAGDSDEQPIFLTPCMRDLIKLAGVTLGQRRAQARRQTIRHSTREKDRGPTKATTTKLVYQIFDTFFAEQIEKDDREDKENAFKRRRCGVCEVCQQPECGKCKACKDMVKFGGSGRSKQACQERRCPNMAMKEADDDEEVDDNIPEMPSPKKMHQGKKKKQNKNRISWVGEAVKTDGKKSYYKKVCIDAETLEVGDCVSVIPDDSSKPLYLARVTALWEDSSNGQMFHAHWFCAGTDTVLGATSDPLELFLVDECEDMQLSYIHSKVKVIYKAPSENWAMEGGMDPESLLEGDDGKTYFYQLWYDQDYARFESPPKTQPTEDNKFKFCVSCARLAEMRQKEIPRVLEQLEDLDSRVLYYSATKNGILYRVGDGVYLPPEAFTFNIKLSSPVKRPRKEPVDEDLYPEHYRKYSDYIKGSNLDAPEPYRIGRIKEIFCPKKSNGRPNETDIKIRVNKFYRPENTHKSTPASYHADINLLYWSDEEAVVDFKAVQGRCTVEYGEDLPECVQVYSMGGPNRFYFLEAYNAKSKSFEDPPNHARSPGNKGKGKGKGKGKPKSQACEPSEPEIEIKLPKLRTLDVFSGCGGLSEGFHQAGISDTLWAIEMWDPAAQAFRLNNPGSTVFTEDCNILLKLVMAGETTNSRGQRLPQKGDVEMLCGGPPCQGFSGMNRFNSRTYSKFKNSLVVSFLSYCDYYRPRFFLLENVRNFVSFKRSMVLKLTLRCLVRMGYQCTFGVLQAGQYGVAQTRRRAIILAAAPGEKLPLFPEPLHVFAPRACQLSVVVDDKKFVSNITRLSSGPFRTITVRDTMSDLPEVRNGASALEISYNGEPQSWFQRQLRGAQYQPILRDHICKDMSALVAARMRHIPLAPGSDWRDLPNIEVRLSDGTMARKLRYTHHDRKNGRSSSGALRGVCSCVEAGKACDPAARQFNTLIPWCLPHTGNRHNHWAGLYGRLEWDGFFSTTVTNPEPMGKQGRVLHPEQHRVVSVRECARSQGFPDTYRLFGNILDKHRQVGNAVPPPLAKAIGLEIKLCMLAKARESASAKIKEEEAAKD

Usually AC50 stands for the concentration at which the activity in the assay is half-maximal. As usually defined, the EC50 is the midpoint of the concentration-response curve. `O=C(Nc1ccc(-c2nc3ncccc3o2)cc1)c1ccc([N+](=O)[O-])o1`: the half-maximal activity concentration (AC50) in assay [1] is 3.63 µM (active); in [3], 1.34 µM (active); in assay [10], 22.6 µM (active); in assay [12] it was 11 µM (active). In addition, the EC50 in [2] is > 120 µM (not active); in [5], > 120 µM (not active); in assay [6], > 60 µM (not active); in assay [8], 0.152 µM (active); in assay [9], 7.12 µM (active); in assay [13], 0.636 µM (active). In addition, the IC50 in assay [4] was > 79 µM (inactive); in assay [7] it was > 80 µM (inactive); in [11] it was > 80 µM (inactive).
For `O=C(O)c1ccc(-n2cccc2/C=C2/SC(=O)N(CC(=O)N3CCCC3)C2=O)cc1`, the IC50 in assay [14] was > 66.6 µM (inactive); in [15], 104 µM (not active); in assay [18], 6.13 µM (active); in assay [19], 3.5 µM (active); in [22] it was 15.9 µM (not active). In addition, the half-maximal activity concentration (AC50) in assay [16] was 44.7 µM (active); in assay [17] it was 30.3 µM (active). Besides, the EC50 in [20] was 33 µM (inactive); in assay [21] it was 89 µM (active); in [23], 78.2 µM (active).
